Assay results reported in US10961510B2, “Exosome active formulation for promoting endothelial cell angiogenesis, and preparation method and application” (INSTITUTE OF MICROCIRCULATION of the CHINESE ACADEMY OF …, priority 2018, dated 2021).

System: human umbilical vein endothelial cells (HUVECs)
Assay: Angiogenesis (tube formation) ability of HUVECs on BME-coated 96-well plate, total branching length by Image J
Format: cell-based
Conditions: 10 ng/mL TNF-α alone, 18 hours intervention, compared with the Con group, P=0.002
Experimental: The angiogenesis ability of human umbilical vein endothelial cells (HUVECs) was detected by using a 96-well plate coated with a basement membrane extract (BME). 50 μL of a BME solution was added in each well, which was placed in a cell incubator at 37° C. for 30 minutes to form a jelly substance. 10000 endothelial cells were inoculated in each well, and the volume of the endothelial cell culture medium was 100 μL. […]
According to the real-time observation for the angiogenesis morphology, when each of the above groups was subjected to intervention treatment for 18 hours, the angiogenesis morphology of each group reached a status for the optimum observation and quantitation. […]

TNF-α
endothelial cell angiogenesis (total branching length of each view field): significantly inhibit endothelial cell angiogenesis
